Active and inactive are the calls of the source. No rule for the calls is given here.

The test system of this data set is rodent carcinogenicity bioassays, tumor incidence. The experiment in a line: CCRIS carcinogenicity studies. Particulars: Species: RAT, Route: ORAL, Dose: 0, 5, 20, 80 MG/KG/D IN FEED FOR 2 YR (STUDY DURATION: 2 YR), Dose: 0, 5, 20, 80 MG/KG/D IN FEED FOR 2 YR (STUDY DURATION: 2 YR), LIVER: HEPATOCELLULAR ADENOMA, LIVER: HEPATOCELLULAR ADENOMA. In outline:
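NCI-built, expert-reviewed records of carcinogenicity and related test outcomes (mutagenicity, tumor promotion/inhibition) compiled from published and report sources, historical span 1985-2011, not updated.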

In the case of `O=P(OC(CCl)CCl)(OC(CCl)CCl)OC(CCl)CCl`, the carcinogen call reads like this: (Strain/Sex: SPRAGUE-DAWLEY CD/FEMALE, Tumor Site: Type of Lesion: ADRENAL GLAND: CORTICAL ADENOMA, KIDNEY: CORTICAL ADENOMA, Tumor Site: Type of Lesion: ADRENAL GLAND: CORTICAL ADENOMA, KIDNEY: CORTICAL ADENOMA) “active; positive”; (Strain/Sex: SPRAGUE-DAWLEY CD/MALE, Tumor Site: Type of Lesion: KIDNEY: RENAL CORTICAL ADENOMA, TESTES: INTERSTITIAL CELL TUMOR, Tumor Site: Type of Lesion: KIDNEY: RENAL CORTICAL ADENOMA, TESTES: INTERSTITIAL CELL TUMOR) “active; positive”.

Values taken from PubChem BioAssay AID1259411 (Chemical Carcinogenesis Research Information System (CCRIS), 2018).
